# Read-outs that look alike come from different tables or passages of the source.
# Assays:
# [1] = Rodent pharmacokinetics study; assay type: in vivo, Sprague-Dawley rats; details: rat, dosed at 10 mg/kg orally (‡)
# [2] = Maximum Tolerated Dose, Sprague-Dawley rats; details: rat, in vivo, oral, ascending dose
# Protocol: The acute safety of the compounds was assessed in rats in order to enable determination of the maximum tolerated dose (MTD), an indication of a compound's safety in animals. The higher the MTD, the greater is the potential safety of the compound being tested.
# Two male and two female Sprague-Dawley rats, aged 8-12 weeks, were dosed at each dose level in an ascending dose study design. The test compounds were administered orally as a suspension formulated in 0.5% carboxymethylcellulose (CMC)/0.1% Tween-80 in a dose volume of 10 mL/kg. Animals were given free access to food throughout the study.
# Animals were observed on at least two occasions during the first hour following dosing, approximately 30 minutes apart, and thereafter at hourly intervals for the remainder of the dosing day for at least 4 hours. […] The nature and severity, where appropriate, of the clinical signs and time were recorded at each observation. Observations included changes in the skin, fur, eyes, and mucous membranes, and also the respiratory, circulatory, autonomic, and central nervous system, as well as somatomotor activity and behaviour pattern. Particular attention was directed towards the observation of tremors, convulsions, salivation, diarrhoea, lethargy, sleep, and coma.
# At the completion of the study, the results were expressed as the maximum tolerated dose for each compound, this being the highest of each without unacceptable toxicity.
# The maximum dose without unacceptable side-effects was determined to be the MTD (expressed in mg/kg).
# [3] = test system: pristane-induced arthritis; assay: Rat Pristane-Induced Arthritis Study; assay type: in vivo
# Protocol: Female Lewis rats were used for all procedures. Animals were housed in groups of 5, and were maintained at 21° C.±2° C. on a 12-hour light/dark cycle with food and water ad libitum. Arthritis was induced by the administration of 0.3 mL pristane intra-dermally at the base of the tail. The rats started to develop signs and symptoms of arthritis approximately seven days after the pristane injection.
# (§1) For macroscopic assessment of arthritis, the following signs were monitored in each paw of each mouse three times per week and summed to generate the Arthritic Index (AI) (the maximum AI for one animal is 16): • 0=no visible effects of arthritis. • 1=oedema and/or erythema of 1 digit. • 2=oedema and/or erythema of 2 digits. • 3=oedema and/or erythema of more than 2 digits. • 4=severe arthritis of entire paw and digits including limb deformation and ankylosis of the joint.
# Animals were sorted into treatment groups prior to pristane administration and dosed once daily for 28 days with test compound at doses of 3 and 10 mg/kg/day by oral gavage, or by intraperitoneal injection at a dose of 0.05 mg/kg for the positive control, methotrexate. After completion of the experiment, the rats were sacrificed.
# (§2) The data were analysed by generating an average of the arthritic index across each treatment group. The mean arthritic index was then compared to the arthritic index of control (untreated) animals using the following formula to generate a percentage inhibition of disease.
# [4] = test system: collagen-induced arthritis; assay: Mouse Collagen-Induced Arthritis; assay type: in vivo, DBA/1j mice; details: 10 mg/kg/day oral gavage, once daily for 14 days, arthritic index vs control
# Protocol: Seven- to eight-week-old male DBA/1j mice were used for all procedures. Animals were housed in groups of 10, and were maintained at 21° C.±2° C. on a 12-hour light/dark cycle with food and water ad libitum. […]. All mice were immunised subcutaneously with 200 μg of bovine type II collagen in CFA. 21 days later, all mice were immunised subcutaneously with 100 μg of bovine type II collagen in IFA.
# The mice started to develop signs and symptoms of arthritis following the ‘booster’ immunisation.
# as §1, with “digits.” for “digits including limb deformation and ankylosis of the joint.”
# Animals were sorted into treatment groups with a mean arthritic index of 2.5 and then dosed once daily for 14 days with compound by oral gavage for test compounds, or by subcutaneous injection at a dose of 10 mg/kg for the positive control, etanercept. After completion of the experiment, the mice were sacrificed.
# as §2
# hERG ion channel = target: T1, hERG ion channel (Homo sapiens, UniProt Q12809); assay: hERG Ion Channel Assay (Q-patch, hERG-CHO cells); assay type: cell-based; details: hERG tail current, hERG-CHO cells, Q-patch; read-out: IC50 (1)
# T1 construct: expressed in transfected cells; host or cells: Chinese Hamster Ovary cells (hERG-CHO), stably transfected
# T1 sequence (Q12809 whole entry): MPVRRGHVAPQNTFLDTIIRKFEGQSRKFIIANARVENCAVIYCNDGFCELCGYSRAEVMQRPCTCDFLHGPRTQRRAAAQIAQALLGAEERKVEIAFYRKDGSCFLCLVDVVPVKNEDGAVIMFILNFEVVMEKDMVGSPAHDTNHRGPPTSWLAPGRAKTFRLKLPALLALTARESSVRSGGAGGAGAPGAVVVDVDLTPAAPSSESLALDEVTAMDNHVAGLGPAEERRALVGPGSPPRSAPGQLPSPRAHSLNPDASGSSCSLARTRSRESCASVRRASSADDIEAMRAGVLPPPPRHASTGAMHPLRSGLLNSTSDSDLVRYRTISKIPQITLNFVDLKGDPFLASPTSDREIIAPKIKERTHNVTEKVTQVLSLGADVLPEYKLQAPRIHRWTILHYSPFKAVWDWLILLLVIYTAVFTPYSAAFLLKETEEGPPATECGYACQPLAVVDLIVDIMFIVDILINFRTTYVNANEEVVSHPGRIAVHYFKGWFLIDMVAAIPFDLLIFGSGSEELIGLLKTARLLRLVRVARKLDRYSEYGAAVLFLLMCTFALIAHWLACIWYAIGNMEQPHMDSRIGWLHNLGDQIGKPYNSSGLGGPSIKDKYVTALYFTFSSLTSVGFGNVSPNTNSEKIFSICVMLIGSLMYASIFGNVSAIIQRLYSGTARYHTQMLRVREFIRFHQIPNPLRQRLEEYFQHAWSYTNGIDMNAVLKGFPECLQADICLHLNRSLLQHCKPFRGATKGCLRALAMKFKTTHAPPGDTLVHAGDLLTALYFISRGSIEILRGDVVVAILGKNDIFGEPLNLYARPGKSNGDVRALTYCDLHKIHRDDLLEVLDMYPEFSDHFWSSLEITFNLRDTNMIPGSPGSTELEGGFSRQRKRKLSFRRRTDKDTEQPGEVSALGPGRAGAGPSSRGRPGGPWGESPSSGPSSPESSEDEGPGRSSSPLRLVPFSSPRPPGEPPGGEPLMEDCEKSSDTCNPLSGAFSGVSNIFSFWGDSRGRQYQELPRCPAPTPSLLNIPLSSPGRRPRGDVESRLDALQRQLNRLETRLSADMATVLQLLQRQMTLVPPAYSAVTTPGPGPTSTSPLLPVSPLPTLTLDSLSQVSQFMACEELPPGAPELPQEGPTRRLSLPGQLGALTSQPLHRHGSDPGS
# How it was run: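 Automated whole-cell Q-patch on hERG-CHO cells (held at 30° C for 24–48 h beforehand), −80 mV holding, +20 mV for 2 s then −40 mV for 1 s to elicit tail current every 5 s. Cumulative rising concentrations, 5 min each; percent tail-current inhibition fitted to three-parameter logistic for IC50.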
smiles,measurement,setting,value
"C[C@]1(O)CC[C@@H](NS(=O)(=O)c2ccc(-c3ccc(F)cc3F)cc2)CC1 [ABD899, reference compound]",p.o. AUC,[1],10740 ng·min/mL
same,MTD,"[2]; female Sprague-Dawley rats, read-out: Maximum tolerated dose, Females",30 mg/kg
same,MTD,"[2]; male Sprague-Dawley rats, read-out: Maximum tolerated dose, Males",30 mg/kg
same,% inhibition of disease,"[3]; 3 mg/kg/day oral gavage, once daily for 28 days",21%
same,Tolerability during extended dosing,"[3]; rat pristane-induced arthritis study, oral, up to 28 days",poorly tolerated
same,% inhibition of disease,[4],77%
same,IC50,hERG ion channel,2900 nM

# Reference: patent publication US9624167B2, “N-(4-hydroxy-4-methyl-cyclohexyl)-4-phenyl-benzenesulfonamides and N-(4-hydroxy-4-methyl-cyclohexyl)-4-(2-pyridyl)benzenesulfonamides and their therapeutic use” (PIMCO 2664 LIMITED, priority 2013, dated 2017)
